# Test results from ChEMBL document CHEMBL1201862, “PubChem BioAssay data set” (2004).
# The source made the active and inactive calls.
# Legend:
# H9c2 = experiment: cells; type: functional, cell-based; conditions: Rattus norvegicus, H9c2, Myocardium;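 note: confirmatory concentration-response retest of ultra-high-throughput screening hits for modulation of myocardial damage; cell death induced by hydrogen peroxide oxidative stress; compound pretreatment for 60 min then peroxide exposure for 2 h; potency is for protecting the cells against peroxide damage rather than for killing them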
# [1] = growth suppression of PTEN-null colon cells, dose response, cell-based, HCT116 PTEN knockout (AID 1047); type: functional;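 note: HCT116 colon tumor cells with PTEN knocked out; cells exposed to compound for 60 hours before readout; potency for loss of cell viability measured by luminescence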
# [2] = growth suppression of beta-catenin-knockout colon cells, dose response, cell-based, HCT116, human colon tumor (AID 1045); type: functional;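 note: HCT116 colon tumor cells with beta catenin knocked out; cells exposed to compound for 60 hours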
# [3] = NIH-3T3 fibroblast cytotoxicity, dose response, cytotoxicity control, cell-based, fluorescence, Alamar Blue, secondary assay (AID 2327); type: functional;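 note: NIH-3T3 mouse fibroblasts cultured with fluconazole at 8 µg/mL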
# [4] = C. albicans growth with fluconazole, confirmation, fluorescence, retest (AID 2467); type: functional, cell-based
# [5] = Luminescence Cell-Based Dose Retest to Confirm Inhibitors of Cancer Stem Cells. [Related pubchem assays (depositor defined):AID2717, AID2721]; type: functional; conditions: Homo sapiens
# Leucine aminopeptidase = biological target: T1, Leucine aminopeptidase (Plasmodium falciparum 3D7, UniProt Q8IL11); experiment: P. falciparum M17LAP inhibitors, primary screen, biochemical, fluorogenic H-Leu-NHMec substrate, 1536-well (AID 1619); type: functional
# T1 sequence (Q8IL11 whole entry): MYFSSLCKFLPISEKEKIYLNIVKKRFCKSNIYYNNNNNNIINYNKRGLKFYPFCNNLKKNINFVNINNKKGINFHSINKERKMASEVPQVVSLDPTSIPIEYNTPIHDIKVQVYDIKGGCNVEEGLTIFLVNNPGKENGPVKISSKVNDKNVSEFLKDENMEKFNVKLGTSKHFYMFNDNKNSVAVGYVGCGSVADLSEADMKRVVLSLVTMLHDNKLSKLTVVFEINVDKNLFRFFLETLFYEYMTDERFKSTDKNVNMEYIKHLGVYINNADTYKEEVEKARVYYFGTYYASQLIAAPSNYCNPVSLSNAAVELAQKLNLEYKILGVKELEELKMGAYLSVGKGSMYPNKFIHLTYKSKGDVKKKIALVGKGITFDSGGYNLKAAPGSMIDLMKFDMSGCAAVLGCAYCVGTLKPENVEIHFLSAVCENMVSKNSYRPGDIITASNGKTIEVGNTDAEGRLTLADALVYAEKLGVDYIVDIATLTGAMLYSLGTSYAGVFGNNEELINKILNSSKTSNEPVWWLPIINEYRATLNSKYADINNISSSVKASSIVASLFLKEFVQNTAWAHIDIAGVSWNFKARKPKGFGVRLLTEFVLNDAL
# [6] = biological target: T2, Polyadenylate-binding protein 1 (Homo sapiens, UniProt P11940); experiment: PABP1 MLLE–PAM2 interaction inhibitors, dose response, miRNA deadenylation inhibitor project, biochemical, fluorescence polarization, Cy5-PAM2 peptide, secondary (AID 602260); type: functional; conditions: read-out: IC50_Mean
# [7] = biological target: T2, Polyadenylate-binding protein 1; experiment: PABP1 MLLE–PAM2 binding inhibitor potency, dose response, biochemical, fluorescence polarization, FITC-PAM2 peptide (AID 602259); type: functional; conditions: read-out: IC50_Mean
# [8] = test system: Streptococcus sp. 'group A'; experiment: growth inhibition of control SK(-) GAS strain, dose response, counter-screen for streptokinase expression inhibitor project, luminescence, kanamycin, BacTiterGlo, confirmation (AID 1900); type: functional, organism-based
# Streptokinase A = biological target: T3, Streptokinase A (Streptococcus pyogenes serotype M1, UniProt P10520); experiment: S. pyogenes streptokinase expression inhibitors, potency, dose response, plasminogen activation absorbance, OD405 (AID 1914); type: functional, Streptococcus pyogenes M1 GAS;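 note: secreted streptokinase activity via plasminogen activation per viability signal from cell pellet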
# T3 sequence (P10520 whole entry): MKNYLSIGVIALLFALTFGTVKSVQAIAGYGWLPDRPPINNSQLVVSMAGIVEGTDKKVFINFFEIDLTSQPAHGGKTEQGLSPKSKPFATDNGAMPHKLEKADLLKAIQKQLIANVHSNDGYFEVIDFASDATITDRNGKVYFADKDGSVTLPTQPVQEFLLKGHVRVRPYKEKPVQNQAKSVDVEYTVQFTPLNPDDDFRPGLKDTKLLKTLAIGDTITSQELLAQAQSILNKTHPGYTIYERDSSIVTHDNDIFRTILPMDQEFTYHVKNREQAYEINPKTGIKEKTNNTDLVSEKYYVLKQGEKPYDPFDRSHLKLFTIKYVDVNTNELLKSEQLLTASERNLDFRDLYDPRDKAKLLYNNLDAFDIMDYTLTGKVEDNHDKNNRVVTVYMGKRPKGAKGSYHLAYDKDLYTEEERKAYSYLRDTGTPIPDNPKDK
# [9] = inhibitors of intracellular T. cruzi replication, confirmation, NIH3T3 host cells, beta-gal luminescence (AID 2044); type: functional, cell-based;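 note: intracellular parasites grown in NIH/3T3 mouse fibroblasts as host cells; luminescent beta-galactosidase reporter signal from transgenic T. cruzi replicating inside host cells; inhibitors lower the luminescence signal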
# [10] = cytotoxicity toward NIH3T3 fibroblasts, dose response, counter-screen, cell-based, ATP luminescence, mouse fibroblasts (AID 2010); type: functional;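 note: cells exposed to compound for about 90 hours before reading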
# Streptococcus = experiment: Group A Streptococcus viability loss, dose response, counter-screen for streptokinase expression inhibitor project, luminescence, BacTiterGlo (AID 1915); type: functional, organism-based;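 note: potency for reduction of bacterial viability or growth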
# 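Throughout, for AC50: cells exposed to compound for roughly 70 hours or longer before luminescence read.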
# T2 sequence (P11940 whole entry): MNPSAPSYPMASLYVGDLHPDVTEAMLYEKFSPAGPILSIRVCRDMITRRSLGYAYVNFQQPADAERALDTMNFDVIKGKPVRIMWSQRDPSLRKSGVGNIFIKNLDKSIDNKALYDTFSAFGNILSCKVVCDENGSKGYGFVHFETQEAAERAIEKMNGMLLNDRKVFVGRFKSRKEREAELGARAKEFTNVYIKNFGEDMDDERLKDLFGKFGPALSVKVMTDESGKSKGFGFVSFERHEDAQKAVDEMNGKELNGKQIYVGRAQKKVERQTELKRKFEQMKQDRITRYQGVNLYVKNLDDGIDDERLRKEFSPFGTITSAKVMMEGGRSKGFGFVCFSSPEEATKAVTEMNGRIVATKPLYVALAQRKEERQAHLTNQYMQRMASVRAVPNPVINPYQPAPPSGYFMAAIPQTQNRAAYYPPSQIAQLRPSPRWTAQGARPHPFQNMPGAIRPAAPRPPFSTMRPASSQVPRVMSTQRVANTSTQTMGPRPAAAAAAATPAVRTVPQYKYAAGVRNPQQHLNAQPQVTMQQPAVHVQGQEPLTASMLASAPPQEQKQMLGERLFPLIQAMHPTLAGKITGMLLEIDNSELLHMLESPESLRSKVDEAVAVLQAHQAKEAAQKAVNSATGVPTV
structure (smiles),measurement,setting,value
O=C(COC(=O)Cn1[nH]c(=O)c2ccccc2c1=O)Nc1c(Cl)cccc1C(F)(F)F,IC50,H9c2,> 79 µM (inactive)
COc1ccc(Nc2nc(Nc3ccc(OC)cc3OC)nc(N3CCN(C)CC3)n2)c(OC)c1,IC50,H9c2,> 79 µM (inactive)
CC(=O)Nc1sc(C)c(C)c1C(=O)OCC(=O)Nc1cc(S(=O)(=O)N2CCCCC2)ccc1Cl,EC50,[1],43.1 µM (active)
same,EC50,[2],133 µM (active)
Cc1cccc(Nc2nc(N)nc(CC(=O)CSc3ccc(Cl)cc3)n2)c1,EC50,[1],56 µM (active)
same,EC50,[2],35.6 µM (active)
Cc1ccc(C2(c3noc(CN4CCC(c5ccncc5)CC4)n3)CCCC2)cc1,EC50,[3],19.7 µM (active)
same,EC50,[4],> 38 µM (not active)
same,AC50,[5],0.772 µM (active)
O=C(NCCCCNC(=O)c1nc[nH]c1C(=O)Nc1cccc(Cl)c1)c1nc[nH]c1C(=O)Nc1cccc(Cl)c1,IC50,H9c2,> 79 µM (inactive)
COC(=O)c1ccccc1NC(=O)CN1C(=O)c2ccccc2S1(=O)=O,IC50,Leucine aminopeptidase,18.1 µM (active)
Cn1c(CCN2CCCCC2)nc2cc(NS(=O)(=O)c3ccc(F)cc3)ccc21,EC50,[1],51.6 µM (active)
same,EC50,[2],55.9 µM (active)
COc1ccc(-c2cc(=O)oc3cc(OC(C)C(=O)O)ccc23)cc1 (stereo not drawn),IC50,Leucine aminopeptidase,43.9 µM (active)
Cc1ccc([N+](=O)[O-])cc1NC(=S)NC(=O)c1cccnc1,IC50,[6],> 66 µM (inactive)
same,IC50,[7],> 66 µM (inactive)
Cc1noc(NS(=O)(=O)c2ccc(N/C=C\C(=O)c3ccc4c(c3)OCO4)cc2)c1C,IC50,Leucine aminopeptidase,13.9 µM (active)
Oc1cc(-c2ccccc2)nc2nc(COc3ccccc3)nn12,IC50,Leucine aminopeptidase,7.61 µM (active)
COc1cc(C(=O)Nc2cccc(-c3nnc(-c4ccco4)o3)c2)ccc1OC(C)=O,IC50,H9c2,> 79 µM (inactive)
CC1=C(C(=O)Nc2ccc([N+](=O)[O-])cc2)C(c2cccc(C(F)(F)F)c2)N=C(S)N1c1ccccc1 (stereo not drawn),EC50,[8],7.84 µM (active)
same,EC50,Streptokinase A,18.8 µM (active)
same,EC50,[9],2.05 µM (active)
same,EC50,[1],9.06 µM (active)
same,EC50,[10],> 60 µM (inconclusive)
same,EC50,[2],11.5 µM (active)
same,EC50,Streptococcus,20.5 µM (active)
CCCN1C(=O)c2cc(C(=O)Nc3cccc(C(C)=O)c3)ccc2C1Nc1cccc(C(C)=O)c1 (stereo not drawn),IC50,H9c2,> 79 µM (inactive)
O=c1c2ccccc2nc(CSc2[nH]cnc3ncnc2-3)n1-c1ccc(Cl)c(Cl)c1,IC50,H9c2,> 79 µM (inactive)
